In one series the target is T1, human factor Xa (Homo sapiens, UniProt P00742).
T1 construct: released from the colourless chromogenic substrate by human factor Xa; purchased Roche
Nature of the series: inhibition of factor Xa, enzyme-kinetic measurement with chromogenic substrate. The format is biochemical. The note with it: substrate Chromozym X 200 μMol/l, factor Xa (Roche) 0.175 U/ml, pH 8.0, 37° C., photometric at 405 nm. An excerpt: For example, the compounds • A=2-(5-carbamimidoyl-2-hydroxy-phenyl)-N-[3-methyl-4-(pyrrolidin-1-yl-carbonyl)-phenyl]-acetamide-hydrochloride, • B=2-(2-benzyloxy-5-carbamimidoyl-phenyl)-N-(2-ethoxycarbonyl-ethyl)-N-[3-methyl-4-(pyrrolidin-1-yl-carbonyl)-phenyl]-acetamide-hydrochloride, • C=2-(2-hydroxy-5-carbamimidoyl-phenyl)-N-(2-ethoxycarbonyl-ethyl)-N-[3-methyl-4-(pyrrolidin-1-yl-carbonyl)-phenyl]-acetamide-hydrochloride, • D=2-(2-hydroxy-5-carbamimidoyl-phenyl)-N-(2-carboxy-ethyl)-N-[3-methyl-4-(pyrrolidin-1-yl-carbonyl)-phenyl]-acetamide-hydrochloride • E=2-(5-carbamimidoyl-2-hydroxy-phenyl)-N-[3-methyl-4-(piperidin-1-yl-carbonyl)-phenyl]-acetamide-hydrochloride and • F=2-(5-carbamimidoyl-2-hydroxy-phenyl)-N-[3-methyl-4-(2-aminosulphonyl-phenyl)-phenyl]-acetamide-hydrochloride, were investigated for their effect on the inhibition of factor Xa as follows: • Method: Enzyme-kinetic measurement with chromogenic substrate. The quantity of anpnitroaniline (pNA) released from the colourless chromogenic substrate by human factor Xa is determined photometrically at 405 nm. It is proportional to the activity of the enzyme used. The inhibition of the enzyme activity by the test substance I (in relation to the solvent control) is determined at various concentrations of test substance and from this the IC50 is calculated, as the concentration which inhibits the factor Xa used by 50%. • Material: • Tris(hydroxymethyl)-aminomethane buffer (100 mmol) of and sodium chloride (150 mMol), pH 8.0 • Factor Xa (Roche), spec. activity: 10 U/0.5 ml, final concentration: 0.175 U/ml per reaction mixture • Substrate Chromozym X (Roche), final concentration: 200 μMol/l per reaction mixture • Test substance: final concentration 100, 30, 10, 3, 1, 0.3, 0.1, 0.03, 0.01, 0.003, 0.001 μMol/l
Procedure: 10 μl of a 23.5-times concentrated starting solution of the test substance or solvent (control), 175 μl of tris(hydroxymethyl)-aminomethane buffer and 25 μl of Factor Xa working solution of 1.65 U/ml are incubated for 10 minutes at 37° C. After the addition of 25 μl of Chromozym X working solution ([…]) the sample is measured in a photometer (SpectraMax 250) at 405 nm for 150 seconds at 37° C.
• 1. Determining the maximum increase (deltaOD/minutes) over 3 measuring points. • 2. Determining the % inhibition based on the solvent control. • 3. Plotting a dosage/activity curve (% inhibition vs substance concentration). • 4. Determining the IC50 by interpolating the X value (substance concentration) of the dosage/activity curve at Y=50% inhibition.

The term IC50 denotes the concentration that gives 50% inhibition. A low value points to higher potency. Usually melting point stands for the temperature, or range, at which the solid turns liquid.

Where a name gives a salt, the structure may show the parent alone.

T1 sequence (P00742 235-488 limits assumed): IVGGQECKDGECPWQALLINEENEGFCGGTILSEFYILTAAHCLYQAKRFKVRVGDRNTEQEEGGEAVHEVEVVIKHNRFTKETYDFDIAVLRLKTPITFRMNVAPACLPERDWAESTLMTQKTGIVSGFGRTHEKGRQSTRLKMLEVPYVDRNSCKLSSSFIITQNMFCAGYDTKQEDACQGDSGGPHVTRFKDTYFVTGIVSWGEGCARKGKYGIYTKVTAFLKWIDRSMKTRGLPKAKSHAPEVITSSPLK
T1 sequence (P00742 41-179 partner limits assumed): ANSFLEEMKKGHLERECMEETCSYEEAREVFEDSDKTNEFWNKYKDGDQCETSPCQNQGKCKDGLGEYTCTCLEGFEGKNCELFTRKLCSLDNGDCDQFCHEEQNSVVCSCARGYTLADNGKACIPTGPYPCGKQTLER

In the case of `CCOC(=O)CCN(C(=O)Cc1cc(C(=N)N)ccc1O)c1ccc(C(=O)N2CCCC2)c(C)c1` [C, 2-(2-hydroxy-5-carbamimidoyl-phenyl)-N-(2-ethoxycarbonyl-ethyl)-N-[3-methyl-4-(pyrrolidin-1-yl-carbonyl)-phenyl]-acetamide-hydrochloride], half-maximal inhibition on human factor Xa (IC50) was put at 0.12 µM.

Take `Cl.N=C(N)c1cccc(C(=O)NCc2ccc(NS(=O)(=O)c3ccccc3)cc2)c1`: the melting point is 266 °C.

`Cc1cc(NC(=O)Cc2cc(C(=N)N)ccc2O)ccc1C(=O)N1CCCCC1` [E, 2-(5-carbamimidoyl-2-hydroxy-phenyl)-N-[3-methyl-4-(piperidin-1-yl-carbonyl)-phenyl]-acetamide-hydrochloride] gave an IC50 against human factor Xa of 0.085 µM.

As for `Cl.N=C(N)c1cccc(C(=O)NCc2ccc(NC(=O)c3ccccc3)cc2)c1`, the melting point fell in the range of 190 to 215 °C.

For the compound `Cc1cc(NC(=O)Cc2cc(C(=N)N)ccc2O)ccc1C(=O)N1CCCC1` [A, 2-(5-carbamimidoyl-2-hydroxy-phenyl)-N-[3-methyl-4-(pyrrolidin-1-yl-carbonyl)-phenyl]-acetamide-hydrochloride], the IC50 on human factor Xa was 0.03 µM.

For the compound `Cc1cc(N(CCC(=O)O)C(=O)Cc2cc(C(=N)N)ccc2O)ccc1C(=O)N1CCCC1` [D, 2-(2-hydroxy-5-carbamimidoyl-phenyl)-N-(2-carboxy-ethyl)-N-[3-methyl-4-(pyrrolidin-1-yl-carbonyl)-phenyl]-acetamide-hydrochloride], half-maximal inhibition on human factor Xa (IC50) was put at 0.85 µM.

Take `Cc1cc(NC(=O)Cc2cc(C(=N)N)ccc2O)ccc1-c1ccccc1S(N)(=O)=O` [F, 2-(5-carbamimidoyl-2-hydroxy-phenyl)-N-[3-methyl-4-(2-aminosulphonyl-phenyl)-phenyl]-acetamide-hydrochloride]: the IC50 at human factor Xa was found to be 0.26 µM.

Turning to `CCOC(=O)CCN(C(=O)Cc1cc(C(=N)N)ccc1OCc1ccccc1)c1ccc(C(=O)N2CCCC2)c(C)c1` [B, 2-(2-benzyloxy-5-carbamimidoyl-phenyl)-N-(2-ethoxycarbonyl-ethyl)-N-[3-methyl-4-(pyrrolidin-1-yl-carbonyl)-phenyl]-acetamide-hydrochloride], the concentration for half-maximal inhibition (IC50) at human factor Xa was 0.68 µM.

As to `Cl.N=C(N)c1cccc(C(=O)NCc2ccc(Oc3ccncc3)cc2)c1`, the melting point is 115 °C (dec.).

The values above are taken from patent US7425641B2, “Carboxylic acid amides, the preparation thereof and their use as pharmaceutical compositions” (Boehringer Ingelheim Pharma KG, priority 1999, dated 2008).
